Experimental data from patent US10543262B2, “Combination therapy utilizing P2X7 peptides” (BIOSCEPTRE (AUST) PTY LTD, priority 2011, dated 2020).

Tested on: nfP2X7 receptors
Assay: ELISA of specific anti-nfP2X7 antibody response in patient serum after immunisation with peptide-KLH conjugate
Format: in vivo, human
Description: Peptide immunogen was synthesised to high purity in the form GHNYTTRNILPGLNITC (SEQ ID NO:2) to which was added the cross-linker maleimidocaproyl-N-hydroxysuccinimide (MCS) at the C-terminal Cys residue. The peptide was cross-linked to a carrier protein Keyhole Limpet Hemocyanin (KLH) such that the average percentage of peptide to total peptide-protein conjugate was 40%. This peptide or the alternative peptide […] (SEQ ID NO:5) similarly conjugated to KLH constituted selective epitope targets, primary and compound respectively that enabled differentiation of the nfP2X7 receptors to be made from native receptors.
The peptide-protein conjugate was added at a concentration of 2.5 mg/mL conjugate (1 mg/mL peptide) dropwise with thorough mixing in the adjuvant in an amount equal to 0.5 mL conjugate to 0.75 mL adjuvant containing 0.5 mg of target peptide epitope.
The immunisation schedule consisted of a primary inoculation (two injections subcutaneously and two injections intramuscularly) of a total of 0.5 mg peptide followed a month later with a boost applied the same way with 0.3 mg peptide. Serum samples were collected immediately prior to and a week post injections. Inoculation is ideally administered no less than a month after the final infusion of anti-nfP2X7 antibody to ensure no sequestration of the immunogen by residual specific anti-nfP2X7 antibody infusate.
Specific anti-nfP2X7 antibody responses were measured by ELISA. In brief, the ELISA plate was coated with specific target peptide epitope, either naked or conjugated to a carrier other than the one against which the antibody response was generated, over which patient serum is added in a descending concentration. After washing, an appropriate secondary anti-human antibody (anti-IgM or anti-IgG types) is applied to detect and determine the concentration of specific human anti-nfP2X7 antibody present in the patient serum in the form of IgM or IgG.

[1] = following the primary inoculation (0.5 mg peptide)

How did the “specific anti-nfP2X7 IgM concentration in patient serum (ELISA)” value (following the boost (0.3 mg peptide)) turn out when GHNYTTRNILPGLNITC was run?
Its value is “returned to a baseline of zero”.

What about the “specific anti-nfP2X7 IgG concentration in patient serum (ELISA)” value (following the boost, provided no nfP2X7 receptor sink is present on extant tumor) of the same sequence?
Its value is “higher concentration than the original IgM”.

And the “specific anti-nfP2X7 IgG in patient serum (ELISA)” value [1]?
The value was “no IgG is detectable”.

And the “specific anti-nfP2X7 IgM in patient serum (ELISA)” value [1]?
Its value is “a small amount of IgM is detected”.

And the “circulating anti-nfP2X7 antibody response in serum (ELISA)” value (patient with moderate tumor burden, Week 13, 9 weeks post boost)?
Its value is “small level”.

And the “circulating antibody present in serum (ELISA)” value (patient with moderate tumor burden, intermediate measurements Weeks 5 to 12)?
Its value is “little circulating antibody was present”.

What about the “antibodies to the peptide detected in serum (ELISA)” value (patient with moderate tumor burden, pre-boost serum at Week 4, 4 weeks post initial immunisation) of the same sequence?
The value was “No antibodies were detected”.

What about the “circulating antibody levels detected in serum (ELISA)” value (patient with very small residual tumor burden, Week 5, 1 week post boost) of the same sequence?
Its value is “much higher than in the patient who had a moderate tumor mass”.

What about the “specific endogenous anti-nfP2X7 antibody detected in the serum” value (patients without nfP2X7 receptor sink (original tumor cleared), after boost) of the same sequence?
The value was ~5 mg/kg.
